Test results from patent US7507739B2, “6-[(substituted)phenyl]triazolopyrimidines as anticancer agents” (Wyeth, priority 2003, dated 2009).

Legend:
COLO 205 cells = assay: MTS cytotoxicity test with COLO 205 cells; assay type: cell-based, human; details: Homo sapiens, COLO 205, 72 h, 3 days
How it was run: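 COLO 205 human colon carcinoma cells, 1000 per well, exposed 3 days at 37° C to nine 2-fold dilutions, typical final top concentration 5 μM. MTS absorbance normalized to time-0 plate; IC50 is concentration giving colour yield midway between untreated and fully killed controls.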

S1-M1 cells = assay: MTS cytotoxicity test with S1-M1 cells (MXR); assay type: cell-based, human
How it was run: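 S1 colon carcinoma (LS174T subclone) and MXR-overexpressing S1-M1 cells at 1000/well, dosed after ~24 hr with nine 2-fold dilutions, then cultured three days at 37°. MTS formazan absorbance normalized to a time-0 plate; IC50 taken at half-maximal color yield.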

pure tubulin = assay: Tubulin polymerization test with pure tubulin without GTP; assay type: biochemical, bovine; details: no GTP, 24.3 μM
How it was run: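 GTP-free polymerization using >99% pure bovine brain tubulin in PEM buffer (pH 6.9); centrifuged supernatant added to compounds. Duplicates at six 3-fold dilutions from 24.3 μM, read at 35°.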

Q: What does the source list for `CC[C@]1(O)C[C@H]2CN(CCc3c([nH]c4ccccc34)[C@@](C(=O)OC)(c3cc4c(cc3OC)N(C=O)[C@H]3[C@@](O)(C(=O)OC)[C@H](OC(C)=O)[C@]5(CC)C=CCN6CC[C@]43[C@@H]65)C2)C1` [Vincristine, reference compound]?
A: IC50 (COLO 205 cells): 2.6 nM; IC50 (S1-M1 cells; Homo sapiens, S1-M1 cells, MTS, read-out: IC50 S1-M1): 4.6 nM; Ratio (S1-M1 cells; IC50 on S1-M1 cells/IC50 on S1 cells): 0.82; A340 at 0 min (pure tubulin): 0; A340 at 5 min (pure tubulin): 0.01; A340 at 10 min (pure tubulin): 0.01; A340 at 15 min (pure tubulin): 0; A340 at 20 min (pure tubulin): 0
